This note sets out measurements from patent US7285547B2, “Amidinophenylalanine derivatives as thrombin inhibitors” (LEK Pharmaceuticals d.d., priority 2000, dated 2007).

In general, melting point refers to the temperature, or range, at which the solid turns liquid. In general, Ki refers to the dissociation constant of the complex between target and ligand, obtained from inhibition or displacement. For orientation: ED50 means the dose that gives a 50% effect, or the effect in half of the subjects.

One data set concerns the target trypsin / thrombin. Briefly: Selectivity to thrombin (ratio of Ki for trypsin to Ki for thrombin). The class given is biochemical. Here is the method:
3. Selectivity to Thrombin
By the use of other serine protease like trypsin with the appropriate chromogenic substrate, selectivity of inhibitors with respect to thrombin was determined. Selectivity of an inhibitor is expressed as a ratio of Ki for trypsin to Ki for thrombin.

The target in another data set is T1, human thrombin (Homo sapiens, UniProt P00734).
T1 construct: Human thrombin (308 NIH; Sigma); purchased Sigma
The data set is described as follows: Determination of thrombin Ki (chromogenic substrate S-2238). The class given is biochemical. Here is the method:
(§1) The enzyme inhibitory effect of the compounds can be identified by determination of inhibition constant Ki. It denotes the degree of dissociation of the enzyme-inhibitor complex. Low dissociation constant means high potency of inhibitor. Ki can be determined during reaction of the enzyme with a specific chromogenic substrate which under hydrolysis by the enzyme develops color. Reaction in time is recorded by spectrophotometry and Ki is calculated from kinetic parameters (Vmax, Km, reaction rate).
1. Determination of Thrombin Ki
The ability of a compound to act as an inhibitor of human thrombin catalytic activity was assessed by determination of Ki.
A mixture of 50 μL of buffer, 50 μL of inhibitor in water (final concentrations from 10 to 100 μM) and 50 μL of thrombin (0.5 NIH U/mL f.c.) was incubated for 15 minutes at room temperature.
Thrombin activity was determined from the change in absorbance in the linear part of the velocity graph. […] The Km for the substrate was determined under the test conditions with at least 6 substrate concentrations varying around Km and calculated with the non-linear regression programme Curve expert.

For another data set, the target named is T2, trypsin (UniProt P00760).
T2 construct: Trypsin (6000 E/mg prot; Sigma): dissolved in distilled water to give a stock solution of 300 E/mL
T2 sequence (P00760 1-246): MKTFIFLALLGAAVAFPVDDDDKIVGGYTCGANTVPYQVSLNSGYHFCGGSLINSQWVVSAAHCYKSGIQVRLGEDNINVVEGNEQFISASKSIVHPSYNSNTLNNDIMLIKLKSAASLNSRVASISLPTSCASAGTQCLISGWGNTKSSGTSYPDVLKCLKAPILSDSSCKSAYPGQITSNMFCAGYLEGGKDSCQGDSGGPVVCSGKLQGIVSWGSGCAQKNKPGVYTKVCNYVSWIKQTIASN
Briefly: Determination of trypsin Ki (chromogenic substrate S-2222). The data set is classed as biochemical. The conditions noted are these: S-2222, 25° C. The protocol: as §1
2. Determination of Trypsin Ki
The ability of a compound to act as an inhibitor of trypsin catalytic activity was assessed by determination of Ki.
50 μL of buffer, 50 μL of test compound in water (final concentrations from 50 to 300 μM) and 50 μL of trypsin (3 mE/mL f.c.) were incubated for 15 minutes at room temperature.
Trypsin activity was determined from the change in absorbance in the linear part of velocity graph. […] The Km for the substrate was determined under test conditions with at least 6 substrate concentrations varying around Km and calculated with the non-linear regression program Curve expert.

The test system of data set [1] is normal pooled human plasma. The data set is described as follows: Activated partial thromboplastin time (aPTT) coagulation assay. The data set is classed as biochemical. The conditions noted are these: concentration of inhibitor that doubled the clotting time. The protocol:
(§2) The Anticoagulant effect of thrombin inhibitors was measured by thrombin time (TT), activated partial thromboplastin time (aPTT), and prothrombin time (PT) assays. Inhibitors were added to normal pooled human plasma over a range of concentrations and clotting was recorded in an automated coagulometer (Fibrintimer, Dade/Behring). The concentration of inhibitor that doubled the clotting time was determined for each assay.
2. Activated Partial Thromboplastin Time (aPTT)
Incubation of plasma with the optimal quantity of phospholipids and a surface activator leads to activation of factors of the intrinsic coagulation pathway. The addition of calcium ions triggers the coagulation process. The time of fibrin clot formation wass measured. aPTT was used as a screening test for coagulation disorders of the intrinsic coagulation pathway. It is prolonged due to intrinsic coagulation factors deficit or due to the presence of inhibitors.
b) Reagents • Pathromtin SL (Dade/Behring): silicon dioxide particles, vegetable phospholipids, sodium chloride (2.4 g/L), Hepes (14.3 g/L, pH 7.6), sodium azide (<1 g/L). […]
Inhibitor (10 μL working solution, concentrations from 5 μM to 100 μM) and pooled plasma (90 μL) were incubated at 37° C. for 5 minutes. […] The addition of calcium chloride (100 μL) triggered the coagulation process and clot formation was detected with a coagulometer in duplicate.

In data set [2] the test system is normal pooled human plasma. Briefly: Thrombin time (TT) coagulation assay. The class given is biochemical. Particulars: concentration of inhibitor that doubled the clotting time. Here is the method: as §2
In a plasma sample thrombin converts fibrinogen into fibrin and the clot is formed. The time for clot formation was measured. Thrombin time is prolonged due to disorders in fibrin polymerisation or due to the presence of thrombin inhibitors.
b) Reagents • Thrombin (Test Thrombin Reagent, 1.5 IU/mL, Dade/Behring): lyophilized bovine thrombin was dissolved in 5 mL of HEPES (25 mmol/L, pH 7.4). The reagent was warmed to 37° C. prior to the assay. • Normal pooled plasma: venous blood from 11 apparently healthy volunteers was collected (1 part 0.11 mol/L sodium citrate solution with 9 parts of blood) and centrifuged immediately at 2000×g for 30 minutes at 4° C. […]
Inhibitors (10 μL working solution, concentrations from 2.5 μM to 100 μM) and pooled plasma (90 μL) were incubated at 37° C. for 5 minutes and then thrombin (200 μL) was added. Clot formation was measured in a coagulometer in duplicate.

The test system of data set [3] is normal pooled human plasma. Briefly: Prothrombin time (PT) coagulation assay. The class given is biochemical. The conditions noted are these: concentration of inhibitor that doubled the clotting time. The protocol:
as §2
An optimal amount of thromboplastin and calcium are added to plasma sample and the time of fibrin clot formation wass measured. PT is a rapid, sensitive screening test for coagulation disorders of the extrinsic pathway. It is well suited for the induction and monitoring of oral anticoagulant therapy, for diagnosing genetic or acquired deficiencies in coagulation factors and checking the synthesis performance of the liver in hepatic diseases. PT is prolonged due to extrinsic coagulation factors deficit or due to the presence of inhibitors.
b) Reagents • Thromboplastin (Thromborel S, Dade/Behring): was dissolved in 4 mL of distilled water. […]
Inhibitor (10 μL working solution, concentrations from 5 μM to 100 μM) and pooled plasma (90 μL) were incubated at 37° C. for 5 minutes and then Thromborel S (200 μL) was added. Clot formation was measured with a coagulometer in duplicate.

In data set [4] the test system is thrombus formation in a venous thrombosis model in the rat. The data set is described as follows: Stasis-induced thrombosis (venous thrombosis model). Particulars: iv, i.v. 5 min before thrombosis induction, tissue factor plus stasis, read-out: Stasis-induced thrombosis (ED50 ± SD). The class given is in vivo. Here is the method:
1. Stasis-Induced Thrombosis
Using a combination of thrombogenic challenge (0.045 ng/kg of tissue factor) and stasis, compounds were tested for their abillity to affect thrombus formation in a venous thrombosis model in the rat.
Thrombus formation by a combination of stasis and hypercoagulability was induced as described by Vogel et al. (Thromb. Res., 1989, 54, 399410). Male sprague-Dawley rats (250-300 g) were anaesthetized with sodium pentobarbitone (30 mg/kg, i.p.). The abdomen of the animals was surgically opened and after careful dissection, the vena cava was exposed and dissected free from surrounding tissue. Saline, or the various compounds were administered i.v. 5 min before thrombosis induction. […] Human tissue factor (0.045 ng/kg, i.v.) was injected into the dorsal vein of the penis. Ten seconds after the end of the injection, stasis were established by tightening the […] the proximal and then the distal. The abdominal cavity was provisionally closed and stasis was maintained for 20 minutes. The cavity was then reopened, the ligated segment was opened longitudinally and the thrombus formed was removed, rinsed, blotted on filter paper, dried overnight at 60° C. and weighed. Under these experimental conditions, control thrombus weight was 5.5±0.1 mg (n=15).

Data set [5] concerns transection of the tail of rats. Briefly: Bleeding time (transection of the tail). The data set is classed as in vivo. Particulars: rat tail transection, 1 mg/kg i.v. 5 min before transection. The protocol:
The hemorrhagic risk associated to a treatment with selected compounds were determined using an experimental model of bleeding: transection of the tail of rats.
Bleeding time was determined by transection of the tail, 2 mm from the tip, of […] rats (30 mg/kg i.p.). The compounds were injected i.v. at the indicated doses 5 min before tail transection. Blood was carefully blotted every 15 s on a filter paper. Haemostasis was considered to be achieved when no more blood stain was observed over 1 min.

The mark [6] stands for this setting: text comparison of SI 20025 compound with compound of the present invention.

As for `COc1ccc2cc(S(=O)(=O)NN(Cc3cccc(C(=N)N)c3)C(=O)N3CCC(C)CC3)ccc2c1.Cl`, the melting point lay within 151 to 154 °C.

On to `Cl.N=C(N)c1cccc(CN(NS(=O)(=O)c2ccc3ccccc3c2)C(=O)N2CCCCCC2)c1`, for which the melting point is 151 to 154 °C.

`COc1ccc2cc(S(=O)(=O)NN(Cc3cccc(C(=N)N)c3)C(=O)N3CCCCCC3)ccc2c1.Cl` displayed a melting point of 151 to 154 °C.

For `CC1CCN(C(=O)N(Cc2cccc(C(=N)NO)c2)NS(=O)(=O)c2ccc3ccccc3c2)CC1`, the “Ki trypsin/Ki thrombin” value on trypsin / thrombin is recorded as 146. The Ki at human thrombin (human thrombin, S-2238, 25° C.) is 469 nM; on trypsin it was greater than 68300 nM.

As for `CC1CCN(C(=O)N(Cc2cccc(C(=N)N)c2)NS(=O)(=O)c2ccc3ccccc3c2)CC1`, the Ki came out at 4 nM on human thrombin (human thrombin, S-2238, 25° C.) and 112 nM at trypsin.

`COc1ccc2cc(S(=O)(=O)NN(Cc3cccc(C(=N)N)c3)C(=O)N3CCC(C)CC3)ccc2c1` returned an aPTT in data set [1] of 2.1 µM. Besides, in [2], the TT came out at 2.0 µM. Further, in data set [3], the PT was 2.7 µM. The molecule further came in with a Ki on human thrombin (human thrombin, S-2238, 25° C.) of 11 nM.

In the case of `COc1ccc2cc(S(=O)(=O)NN(Cc3cccc(C(=N)NO)c3)C(=O)N3CCCCCC3)ccc2c1`, the “Ki trypsin/Ki thrombin” value at trypsin / thrombin is on record as 29. The Ki at trypsin came to 17900 nM.

In the case of `COc1ccc2cc(S(=O)(=O)NN(Cc3cccc(C(=N)N)c3)C(=O)N3CCCCCC3)ccc2c1`, the “Ki trypsin/Ki thrombin” value at trypsin / thrombin was 5.84. Also, the inhibition constant (Ki) at human thrombin (human thrombin, S-2238, 25° C.) is 9 nM; on trypsin, 53 nM.

Consider `CC1CCCCN1C(=O)N(Cc1cccc(/C(N)=N/O)c1)NS(=O)(=O)c1ccc2ccccc2c1` (stereo not shown) [Example 13, N′-hydroxy-3-{[1-[(2-methyl-1-piperidinyl)carbonyl]-2-(2-naphthylsulfonyl)hydrazino]methyl}benzenecarboximidamide], for which the melting point fell in the range of 101 to 103 °C.

`COc1ccc2cc(S(=O)(=O)NN(Cc3cccc(/C(N)=N/O)c3)C(=O)N3CCCCC3C)ccc2c1` (stereo not shown) [Example 15, N′-Hydroxy-3-({2-[(6-methoxy-2-naphthyl)sulfonyl]-1-[(2-methyl-1-piperidinyl)carbonyl]hydrazino}methyl)benzenecarboximidamide] yielded a melting point of 172 to 175 °C.

In turn, `COc1ccc2cc(S(=O)(=O)NN(Cc3cccc(/C(N)=N/O)c3)C(=O)N3CCC(C)CC3)ccc2c1` [Example 17, N′-Hydroxy-3-({2-[(6-methoxy-2-naphthyl)sulfonyl]-1-[(4-methyl-1-piperidinyl)carbonyl]hydrazino}methyl)benzenecarboximidamide] had a melting point of 154 to 156 °C.

Turning to `COc1ccc2cc(S(=O)(=O)NN(Cc3cccc(/C(N)=N/O)c3)C(=O)N3CCCCCC3)ccc2c1` [Example 23, 3-({1-(1-Azepanylcarbonyl)-2-[(6-methoxy-2-naphthyl)sulfonyl]hydrazino}methyl)-N′-hydroxybenzenecarboximidamide], the melting point fell in the range of 173 to 175 °C.

Consider `N=C(N)c1ccc(CN(NS(=O)(=O)c2ccc3ccccc3c2)C(=O)N2CCCCCC2)cc1` [compound a, reference compound], for which the Ki on human thrombin (setting [6]) worked out at 32 nM.

As for `N=C(N)Cc1ccc(CN(NS(=O)(=O)c2ccc3ccccc3c2)C(=O)N2CCCCCC2)cc1` [compound b], the Ki on human thrombin (setting [6]) worked out at 5 nM.

With `N/C(=N\O)c1cccc(CN(NS(=O)(=O)c2ccc3ccccc3c2)C(=O)N2CCCCCC2)c1` [drawing 45], the “Ki trypsin/Ki thrombin” value on trypsin / thrombin is 54. The Ki on human thrombin (human thrombin, S-2238, 25° C.) was determined as 594 nM; at trypsin, 32200 nM.

Turning to `N=C(N)c1cccc(CN(NS(=O)(=O)c2ccc3ccccc3c2)C(=O)N2CCCCCC2)c1` [drawing 46], the Ki stood at 5 nM at human thrombin (human thrombin, S-2238, 25° C.) and 143 nM at trypsin.

For `N/C(=N\O)c1cccc(CN(NS(=O)(=O)c2ccc3ccccc3c2)C(=O)N2CCCCCC2)c1` [drawing 49], in [4], the median effective dose (ED50) was determined as 0.29 ± 0.011 mg/kg. In addition, the “Bleeding (fold increase at 1 mg/kg)” value in [5] was 3.3 fold increase.

Consider `N=C(N)c1cccc(CN(NS(=O)(=O)c2ccc3ccccc3c2)C(=O)N2CCCCCC2)c1` [drawing 50], for which the ED50 in [4] is 0.07 ± 0.005 mg/kg.
